In brackets after ≈: the same amount, converted by molar mass.
What was measured:
Acinetobacter baumannii [1] = assay: Antibacterial activity against Acinetobacter baumannii A849 after 24 hrs by agar dilution method; assay type: functional; details: A849, 24 h
Acinetobacter baumannii [2] = assay: Antibacterial activity against Acinetobacter baumannii A848 after 24 hrs by agar dilution method; assay type: functional; details: A848, 24 h
Acinetobacter baumannii [3] = assay: Antibacterial activity against Acinetobacter baumannii A894 after 24 hrs by agar dilution method; assay type: functional; details: A894, 24 h
Pseudomonas aeruginosa [4] = assay: Antibacterial activity against Pseudomonas aeruginosa P376 after 24 hrs by agar dilution method; details: P376, 24 h
Klebsiella pneumoniae [5] = assay: Antibacterial activity against beta-lactamase-positive ESBL-negative Klebsiella pneumoniae E477 after 24 hrs by agar dilution method; assay type: functional; details: E477, 24 h
Acinetobacter baumannii [6] = assay: Antibacterial activity against Acinetobacter baumannii A928 after 24 hrs by agar dilution method; assay type: functional; details: A928, 24 h
Pseudomonas aeruginosa [7] = assay: Antibacterial activity against Pseudomonas aeruginosa P352 after 24 hrs by agar dilution method; assay type: functional; details: P352, 24 h
Escherichia coli [8] = assay: Antibacterial activity against beta-lactamase-positive ESBL-positive Escherichia coli E456 after 24 hrs by agar dilution method; details: E456, 24 h
Acinetobacter baumannii [9] = assay: Antibacterial activity against Acinetobacter baumannii A865 after 24 hrs by agar dilution method; assay type: functional; details: A865, 24 h
Acinetobacter baumannii [10] = assay: Antibacterial activity against Acinetobacter baumannii A931 after 24 hrs by agar dilution method; assay type: functional; details: A931, 24 h
Acinetobacter baumannii [11] = assay: Antibacterial activity against Acinetobacter baumannii A892 after 24 hrs by agar dilution method; assay type: functional; details: A892, 24 h
Escherichia coli [12] = assay: Antibacterial activity against beta-lactamase-negative Escherichia coli E408 after 24 hrs by agar dilution method; details: E408, 24 h
Pseudomonas aeruginosa [13] = assay: Antibacterial activity against Pseudomonas aeruginosa P335 after 24 hrs by agar dilution method; details: P335, 24 h
Escherichia coli [14] = assay: Antibacterial activity against beta-lactamase-negative Escherichia coli E348 after 24 hrs by agar dilution method; details: E348, 24 h
Klebsiella pneumoniae [15] = assay: Antibacterial activity against beta-lactamase-positive ESBL-positive Klebsiella pneumoniae E476 after 24 hrs by agar dilution method; assay type: functional; details: E476, 24 h
Klebsiella pneumoniae [16] = assay: Antibacterial activity against beta-lactamase-positive ESBL-negative Klebsiella pneumoniae E479 after 24 hrs by agar dilution method; assay type: functional; details: E479, 24 h
Pseudomonas aeruginosa [17] = assay: Antibacterial activity against Pseudomonas aeruginosa P373 after 24 hrs by agar dilution method; details: P373, 24 h
Pseudomonas aeruginosa [18] = assay: Antibacterial activity against Pseudomonas aeruginosa P327 after 24 hrs by agar dilution method; details: P327, 24 h
Escherichia coli [19] = assay: Antibacterial activity against beta-lactamase-positive ESBL-positive Escherichia coli E460 after 24 hrs by agar dilution method; details: E460, 24 h
Escherichia coli [20] = assay: Antibacterial activity against beta-lactamase-negative Escherichia coli E425 after 24 hrs by agar dilution method; details: E425, 24 h
Pseudomonas aeruginosa [21] = assay: Antibacterial activity against Pseudomonas aeruginosa P341 after 24 hrs by agar dilution method; details: P341, 24 h
Escherichia coli [22] = assay: Antibacterial activity against beta-lactamase-positive ESBL-positive Escherichia coli E459 after 24 hrs by agar dilution method; details: E459, 24 h
Escherichia coli [23] = assay: Antibacterial activity against beta-lactamase-positive ESBL-negative Escherichia coli E437 after 24 hrs by agar dilution method; details: E437, 24 h
Acinetobacter baumannii [24] = assay: Antibacterial activity against Acinetobacter baumannii A867 after 24 hrs by agar dilution method; assay type: functional; details: A867, 24 h
Klebsiella pneumoniae [25] = assay: Antibacterial activity against beta-lactamase-positive ESBL-positive Klebsiella pneumoniae E457 after 24 hrs by agar dilution method; assay type: functional; details: E457, 24 h
Pseudomonas aeruginosa [26] = assay: Antibacterial activity against Pseudomonas aeruginosa P356 after 24 hrs by agar dilution method; details: P356, 24 h
Escherichia coli [27] = assay: Antibacterial activity against beta-lactamase-positive ESBL-positive Escherichia coli E451 after 24 hrs by agar dilution method; details: E451, 24 h
Escherichia coli [28] = assay: Antibacterial activity against beta-lactamase-negative Escherichia coli E347 after 24 hrs by agar dilution method; details: E347, 24 h
Klebsiella pneumoniae [29] = assay: Antibacterial activity against beta-lactamase-negative Klebsiella pneumoniae E420 after 24 hrs by agar dilution method; assay type: functional; details: E420, 24 h
Klebsiella pneumoniae [30] = assay: Antibacterial activity against beta-lactamase-positive ESBL-positive Klebsiella pneumoniae E453 after 24 hrs by agar dilution method; assay type: functional; details: E453, 24 h
Escherichia coli [31] = assay: Antibacterial activity against beta-lactamase-negative Escherichia coli E345 after 24 hrs by agar dilution method; details: E345, 24 h
Escherichia coli [32] = assay: Antibacterial activity against beta-lactamase-negative Escherichia coli E346 after 24 hrs by agar dilution method; details: E346, 24 h
Pseudomonas aeruginosa [33] = assay: Antibacterial activity against Pseudomonas aeruginosa P334 after 24 hrs by agar dilution method; details: P334, 24 h
Acinetobacter baumannii [34] = assay: Antibacterial activity against Acinetobacter baumannii A851 after 24 hrs by agar dilution method; assay type: functional; details: A851, 24 h
Acinetobacter baumannii [35] = assay: Antibacterial activity against Acinetobacter baumannii A864 after 24 hrs by agar dilution method; assay type: functional; details: A864, 24 h
Klebsiella pneumoniae [36] = assay: Antibacterial activity against beta-lactamase-positive ESBL-negative Klebsiella pneumoniae E511 after 24 hrs by agar dilution method; assay type: functional; details: E511, 24 h
Acinetobacter baumannii [37] = assay: Ratio of mutant prevention concentration to minimum Inhibitory concentration for Acinetobacter baumannii A884; assay type: functional
Acinetobacter baumannii [38] = assay: Ratio of mutant prevention concentration to minimum Inhibitory concentration for Acinetobacter baumannii A928; assay type: functional
Acinetobacter baumannii [39] = assay: Ratio of mutant prevention concentration to minimum Inhibitory concentration for Acinetobacter baumannii A865; assay type: functional
Acinetobacter baumannii [40] = assay: Ratio of mutant prevention concentration to minimum Inhibitory concentration for Acinetobacter baumannii A901; assay type: functional
Acinetobacter baumannii [41] = assay: Ratio of mutant prevention concentration to minimum Inhibitory concentration for Acinetobacter baumannii A867; assay type: functional
Pseudomonas aeruginosa [42] = assay: Ratio of mutant prevention concentration to minimum Inhibitory concentration for Pseudomonas aeruginosa P373; assay type: functional
Acinetobacter baumannii [43] = assay: Ratio of mutant prevention concentration to minimum Inhibitory concentration for Acinetobacter baumannii A929; assay type: functional
Acinetobacter baumannii [44] = assay: Ratio of mutant prevention concentration to minimum Inhibitory concentration for Acinetobacter baumannii A850; assay type: functional
Pseudomonas aeruginosa [45] = assay: Ratio of mutant prevention concentration to minimum Inhibitory concentration for Pseudomonas aeruginosa P352; assay type: functional
Acinetobacter baumannii [46] = assay: Ratio of mutant prevention concentration to minimum Inhibitory concentration for Acinetobacter baumannii A911; assay type: functional
Acinetobacter baumannii [47] = assay: Ratio of mutant prevention concentration to minimum Inhibitory concentration for Acinetobacter baumannii A898; assay type: functional
Acinetobacter baumannii [48] = assay: Ratio of mutant prevention concentration to minimum Inhibitory concentration for Acinetobacter baumannii A885; assay type: functional
Pseudomonas aeruginosa [49] = assay: Ratio of mutant prevention concentration to minimum Inhibitory concentration for Pseudomonas aeruginosa P353; assay type: functional
Pseudomonas aeruginosa [50] = assay: Ratio of mutant prevention concentration to minimum Inhibitory concentration for Pseudomonas aeruginosa P369; assay type: functional
Pseudomonas aeruginosa [51] = assay: Ratio of mutant prevention concentration to minimum Inhibitory concentration for Pseudomonas aeruginosa P365; assay type: functional
Pseudomonas aeruginosa [52] = assay: Ratio of mutant prevention concentration to minimum Inhibitory concentration for Pseudomonas aeruginosa P334; assay type: functional
Pseudomonas aeruginosa [53] = assay: Ratio of mutant prevention concentration to minimum Inhibitory concentration for Pseudomonas aeruginosa P335; assay type: functional
Pseudomonas aeruginosa [54] = assay: Ratio of mutant prevention concentration to minimum Inhibitory concentration for Pseudomonas aeruginosa P340; assay type: functional

C[C@@H](O)[C@H]1C(=O)N2C(C(=O)O)=C(SCCNC=N)C[C@H]12 [IMIPENEM ANHYDROUS]
MIC (Acinetobacter baumannii [1]): 4 µg/mL (≈ 13.4 µM) | MIC (Acinetobacter baumannii [2]): 4 µg/mL (≈ 13.4 µM) | MIC (Acinetobacter baumannii [3]): 0.5 µg/mL (≈ 1.67 µM) | MIC (Pseudomonas aeruginosa [4]): 4 µg/mL (≈ 13.4 µM) | MIC (Klebsiella pneumoniae [5]): 4 µg/mL (≈ 13.4 µM) | MIC (Acinetobacter baumannii [6]): 0.5 µg/mL (≈ 1.67 µM) | MIC (Pseudomonas aeruginosa [7]): 8 µg/mL (≈ 26.7 µM) | MIC (Escherichia coli [8]): 0.125 µg/mL (≈ 0.418 µM) | MIC (Acinetobacter baumannii [9]): 8 µg/mL (≈ 26.7 µM) | MIC (Acinetobacter baumannii [10]): 0.5 µg/mL (≈ 1.67 µM) | MIC (Acinetobacter baumannii [11]): 4 µg/mL (≈ 13.4 µM) | MIC (Escherichia coli [12]): 0.125 µg/mL (≈ 0.418 µM) | MIC (Pseudomonas aeruginosa [13]): 1 µg/mL (≈ 3.34 µM) | MIC (Escherichia coli [14]): 0.125 µg/mL (≈ 0.418 µM) | MIC (Klebsiella pneumoniae [15]): 8 µg/mL (≈ 26.7 µM) | MIC (Klebsiella pneumoniae [16]): 8 µg/mL (≈ 26.7 µM) | MIC (Pseudomonas aeruginosa [17]): 2 µg/mL (≈ 6.68 µM) | MIC (Pseudomonas aeruginosa [18]): 2 µg/mL (≈ 6.68 µM) | MIC (Escherichia coli [19]): 0.25 µg/mL (≈ 0.835 µM) | MIC (Escherichia coli [20]): 0.25 µg/mL (≈ 0.835 µM) | MIC (Pseudomonas aeruginosa [21]): 4 µg/mL (≈ 13.4 µM) | MIC (Escherichia coli [22]): 0.25 µg/mL (≈ 0.835 µM) | MIC (Escherichia coli [23]): 0.25 µg/mL (≈ 0.835 µM) | MIC (Acinetobacter baumannii [24]): 4 µg/mL (≈ 13.4 µM) | MIC (Klebsiella pneumoniae [25]): 0.25 µg/mL (≈ 0.835 µM) | MIC (Pseudomonas aeruginosa [26]): 2 µg/mL (≈ 6.68 µM) | MIC (Escherichia coli [27]): 0.25 µg/mL (≈ 0.835 µM) | MIC (Escherichia coli [28]): 0.25 µg/mL (≈ 0.835 µM) | MIC (Klebsiella pneumoniae [29]): 0.25 µg/mL (≈ 0.835 µM) | MIC (Klebsiella pneumoniae [30]): 0.125 µg/mL (≈ 0.418 µM) | MIC (Escherichia coli [31]): 0.25 µg/mL (≈ 0.835 µM) | MIC (Escherichia coli [32]): 0.125 µg/mL (≈ 0.418 µM) | MIC (Pseudomonas aeruginosa [33]): 1 µg/mL (≈ 3.34 µM) | MIC (Acinetobacter baumannii [34]): 2 µg/mL (≈ 6.68 µM) | MIC (Acinetobacter baumannii [35]): 8 µg/mL (≈ 26.7 µM) | MIC (Klebsiella pneumoniae [36]): 2 µg/mL (≈ 6.68 µM)

C[C@@H](O)[C@H]1C(=O)N2C(C(=O)O)=C(S[C@@H]3CN[C@H](CNS(N)(=O)=O)C3)[C@H](C)[C@H]12 [DORIPENEM]
Ratio (Acinetobacter baumannii [37]): 2 | Ratio (Acinetobacter baumannii [38]): 2 | Ratio (Acinetobacter baumannii [39]): 8 | Ratio (Acinetobacter baumannii [40]): 2 | Ratio (Acinetobacter baumannii [41]): 16 | Ratio (Pseudomonas aeruginosa [42]): >8 | Ratio (Acinetobacter baumannii [43]): 2 | Ratio (Acinetobacter baumannii [44]): 2 | Ratio (Pseudomonas aeruginosa [45]): 2 | Ratio (Acinetobacter baumannii [46]): 2 | Ratio (Acinetobacter baumannii [47]): 2 | Ratio (Acinetobacter baumannii [48]): 2 | Ratio (Pseudomonas aeruginosa [49]): 4 | Ratio (Pseudomonas aeruginosa [50]): 8 | Ratio (Pseudomonas aeruginosa [51]): 16 | Ratio (Pseudomonas aeruginosa [52]): >16 | Ratio (Pseudomonas aeruginosa [53]): 8 | Ratio (Pseudomonas aeruginosa [54]): 8

— ChEMBL document CHEMBL1255475, “Mutant prevention concentrations of four carbapenems against gram-negative rods” (2010)
